Laboratory results: paper PMC11524583, “Neurons enhance blood–brain barrier function via upregulating claudin-5 and VE-cadherin expression due to glial cell line-derived neurotrophic factor secretion” (eLife, 2024)

Experiments:
Assay type in all cases: cell-based, Homo sapiens
claudin-5 = assay: Western blot of claudin-5 expression in hCMEC/D3 cells; settings: hCMEC/D3 cells; for GDNF-induced claudin-5 expression: 200 pg/ml GDNF, 3 μM SPP-86, 5 μM PP2, 3 μM LY294002, 2 μM U0126, 5 μM SP600125, 2 μM SB203580; for GDNF-induced claudin-5 expression / US-CM-induced claudin-5 expression: anti-GDNF antibody 0.25, 0.5, 1.0 μg/ml; for US-CM-induced claudin-5 expression: 3 μM SPP-86, 5 μM PP2, 3 μM LY294002, 2 μM U0126
Method: (§1) Whole-cell and tissue lysates, nucleoprotein, and cytoplasmic protein were prepared using RIPA Lysis Buffer (Beyotime, Shanghai, China) as the described method ([Wu et al., 2021]). Proteins were separated through sodium dodecyl sulfate–polyacrylamide gel electrophoresis and transferred onto nitrocellulose or polyvinylidene difluoride membranes. The membranes were blocked with 5% skim milk and incubated with corresponding primary antibodies at 4°C overnight. After being washed with Tris-buffered saline Tween buffer, the membranes were incubated with secondary antibodies (Cell Signaling Technology, MA, USA) at 1:3000 dilution: Anti-mouse IgG, HRP-linked Antibody (#7076), Anti-rabbit IgG, HRP-linked Antibody (#7074). Protein levels were visualized using a highly sensitive ECL western blotting substrate and a gel imaging system (Tanon Science & Technology, Shanghai, China).
(§2) CM of U251 cells (U-CM), SH-SY5Y cells (S-CM), or co-culture of U251 and SH-SY5Y cells (US-CM) was prepared. U251 cells were seeded at the top of the insert membrane and suspended on 6-well plates seeded with differentiated SH-SY5Y cells to co-culture U251 cells with SH-SY5Y cells. The medium was collected every 24 hr. The CMs were subsequently used for hCMEC/D3 cell culture after filtrating with 0.2 μm filters for 144 hr. The levels of GDNF, bFGF, IGF-1, and TGF-β in CMs were measured using corresponding ELISA kits according to the manufacturers’ instructions.
(§3) Exogenous and endogenous GDNF in the medium was neutralized with anti-GDNF antibody (#AF-212-NA, R&D system, Minneapolis, MN, USA). 0.25, 0.5, and 1.0 μg/ml anti-GDNF antibody was added into the US-CM or medium containing 200 pg/ml GDNF, and then the medium was preincubated at 4°C for 1 hr. The hCMEC/D3 cells were incubated with 200 pg/ml GDNF or US-CM containing anti-GDNF antibody or not for 6 days, and then cell lysate was collected for western blot. The medium was replaced every 24 hr.
(§4) Here, hCMEC/D3 cells were plated in the plates or culture dishes at 6 × 10^4 cells/cm^2 and transfected with 10 nM of negative control or human FOXO1, ETS1, and CDH5 siRNA (Tsingke Biotechnology, Beijing, China) for 12 hr using Lipofectamine 3000 (Invitrogen, Carlsbad, CA, USA) reagent according to the manufacturer’s instructions. Cells were then incubated with a medium containing GDNF for 72 hr.
(§5) The plasmids encoding FOXO1 (EX-Z7404-M02) were constructed by GeneCopoeia (Rockville, MD, USA). The hCMEC/D3 cells were plated in plates or dishes at 6 × 10^4 cells/cm^2. They were subsequently transfected with 1 µg of negative control or plasmids encoding FOXO1 6 hr using Lipofectamine 3000 reagent according to the manufacturer’s instructions. Transfected cells were then incubated with the medium containing GDNF for 72 hr.

VE-cadherin = assay: Western blot of VE-cadherin expression in hCMEC/D3 cells; settings: hCMEC/D3 cells, anti-GDNF antibody 0.25, 0.5, 1.0 μg/ml; for GDNF-induced VE-cadherin expression: 200 pg/ml GDNF, 3 μM SPP-86, 5 μM PP2, 3 μM LY294002, 2 μM U0126, 5 μM SP600125, 2 μM SB203580; for US-CM-induced VE-cadherin expression: 3 μM SPP-86, 5 μM PP2, 3 μM LY294002, 2 μM U0126
Method: as §1, §2, §3, §4

p-AKT/AKT = assay: Western blot of p-AKT/AKT in hCMEC/D3 cells; settings: hCMEC/D3 cells, US-CM; 3 μM LY294002 or anti-GDNF antibody
Method: as §1, §3

FOXO1 = assay: Western blot of FOXO1 (p-FOXO1/FOXO1, total, cytoplasmic, nuclear) in hCMEC/D3 cells; settings: hCMEC/D3 cells; LY294002 or U0126
Method: as §1, §4, §5

ETS1 = assay: Western blot of total and nuclear ETS1 in hCMEC/D3 cells; settings: hCMEC/D3 cells, 200 pg/ml GDNF; LY294002 or U0126
Method: as §1, §4

p-ERK/ERK = assay: Western blot of p-ERK/ERK in hCMEC/D3 cells; settings: hCMEC/D3 cells, US-CM; 2 μM U0126 or anti-GDNF antibody
Method: as §1, §3

SMILES | GDNF-induced claudin-5 expression (claudin-5) | US-CM-induced claudin-5 expression (claudin-5) | upregulation of claudin-5 expression induced by FOXO1 siRNA and GDNF (claudin-5; LY294002) | GDNF-induced VE-cadherin expression (VE-cadherin) | US-CM-induced VE-cadherin expression (VE-cadherin) | US-CM-induced p-AKT (p-AKT/AKT) | GDNF-induced alterations in total p-FOXO1, cytoplasmic p-FOXO1, cytoplasmic FOXO1, and nuclear FOXO1 (FOXO1) | GDNF-induced nuclear ETS1 expression (ETS1) | GDNF-induced total ETS1 expression (ETS1) | US-CM-induced p-ERK (p-ERK/ERK)
O=c1cc(N2CCOCC2)oc2c(-c3ccccc3)cccc12 [LY294002, reference compound] | significantly suppressed | markedly reversed | reversed | significantly suppressed | markedly reversed | markedly reversed | significantly reversed | markedly attenuated | markedly attenuated | –
N#CC(=C(/N)Sc1ccccc1N)/C(C#N)=C(/N)Sc1ccccc1N [U0126, reference compound] | significantly suppressed | markedly reversed | – | significantly suppressed | markedly reversed | – | – | markedly attenuated | markedly attenuated | markedly reversed
